Read-outs that look alike come from different tables or passages of the source.
What was measured:
recombinant USP1 protein = biological target: T1, recombinant USP1 protein (Homo sapiens, UniProt O94782, DEL125-138/DEL229-408/DEL608-737); assay: Binding affinity to recombinant USP1 protein by differential scanning fluorimetry; details: read-out: ΔTm (°C)
T1 sequence (O94782 with tags, fused parts or gaps DEL125-138/DEL229-408/DEL608-737): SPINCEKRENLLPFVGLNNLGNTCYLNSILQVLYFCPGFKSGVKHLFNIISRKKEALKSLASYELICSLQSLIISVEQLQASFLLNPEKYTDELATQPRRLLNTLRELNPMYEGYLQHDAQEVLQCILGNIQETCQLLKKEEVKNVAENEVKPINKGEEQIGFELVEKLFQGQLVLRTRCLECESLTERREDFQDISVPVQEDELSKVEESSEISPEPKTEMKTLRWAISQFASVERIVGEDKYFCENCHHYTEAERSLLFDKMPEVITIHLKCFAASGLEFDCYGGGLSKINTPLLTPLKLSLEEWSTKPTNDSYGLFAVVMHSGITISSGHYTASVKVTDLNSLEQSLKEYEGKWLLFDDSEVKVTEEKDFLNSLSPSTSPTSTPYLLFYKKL
Protocol: <Experimental Example 1> Confirmation and evaluation of the binding affinity to recombinant USP1 protein
To evaluate the binding affinity of the compounds of the present invention to the USP1 protein, the following experiment was performed using differential scanning fluorimetry.
Recombinant 0.03 mg/mL USP1 (Δ1-66, Δ125-138, Δ229-408, Δ608-737) protein, dye reagent, and buffer solution (50 mM Tris-HCl pH 8.0, 150 mM NaCl, 2% glycerol, 1 mM DTT) were mixed and 19 µL of the mixture was dispensed into a well plate (MicroAmp Fast 96-Well Reaction plate, 0.1 mL). Each compound was injected at a final concentration of 100 µM in an amount of 1 µL, and the plate containing a total of 20 µL was sealed with MicroAmp Optical Adhesive Film. The melting temperature (Tm) of the protein in each well was measured using a real-time PCR (RT-PCR) device. The difference between the Tm of the sample containing the compound and the Tm containing DMSO is referred to as delta Tm (ΔTm), where a larger ΔTm value indicates stronger binding affinity. The degree of temperature at which the protein is modified in the presence of the compound compared to DMSO was calculated according to Equation 1 below: [formula]

UWB1.289 cells = assay: Cell proliferation inhibitory activity in BRCA1/2-mutant or HRD-positive cells (Cell Titer-Glo); format: cell-based; details: read-out: GI50 UWB1.289 BRCA1 mut
Protocol: <Experimental Example 2> Evaluation of Cell Proliferation Inhibitory Activity in BRCA1/2-Mutant or HRD-Positive Cells
To evaluate the inhibitory activity of the compound according to the present invention on the proliferation of BRCA1/2 mutants or homologous recombination deficient (HRD) positive cell lines, the following experiments were performed. UWB1.289 cells were cultured in medium (50% MEBM + 50% RPMI1640), and 1,000 cells were seeded in a well plate (black clear bottom 96-well plate, Corning) 16 to 24 hours prior to compound treatment. The compounds were diluted in dimethyl sulfoxide (3-fold serial dilution starting at 10 µM, for a total of 10 concentrations) and injected at 1 µl per well, resulting a final concentration range of […] to 10 µM. Measurements of live cells were performed by a reaction in a 37 °C and CO2 incubator for 144 hours after compound treatment. The cells were incubated for 10 minutes in an incubator using Cell Titer-Glo luminescent cell-viability reagent (Promega), and luminescence intensity thereof was measured using a reader (SynergyNeo2, Biotek). GI50 values were calculated using the GraphPad Prism version 8.4.3 (GraphPad software Inc., San Diego) program.

[1] = compound 100 µM, 0.03 mg/mL USP1 (Δ1-66, Δ125-138, Δ229-408, Δ608-737), Tm with compound minus Tm with DMSO
[2] = UWB1289, UWB1.289 cells, 144 hours after compound treatment, Cell Titer-Glo, 1.5 nM to 10 µM

ΔTm at 100 µM (recombinant USP1 protein; [1]) [°C] | SMILES | GI50 (UWB1.289 cells; [2]) [µM] | ΔTm at 100 µM (recombinant USP1 protein) [°C] | GI50 (UWB1.289 cells; UWB1289, 144 h) [µM]
> 5 | COc1ncnc(C2CC2)c1-c1ncc2cc(C(=O)NC3CC3(F)F)n(Cc3ccc(-c4nc(C(F)(F)F)cn4C(C)C)cc3)c2n1 (centres unmarked) [Example 10, 2-(4-cyclopropyl-6-methoxypyrimidin-5-yl)-N-(2,2-difluorocyclopropyl)-7-(4-(1-isopropyl-4-(trifluoromethyl)-1H-imidazol-2-yl)benzyl)-7H-pyrrolo[2,3-d]pyrimidine-6-carboxamide] | < 0.1 |  | 
> 5 | COc1ncnc(C2CC2)c1-c1ncc2cc(C(=O)N3CCC(N4CCOCC4)CC3)n(Cc3ccc(-c4nc(C(F)(F)F)cn4C(C)C)cc3)c2n1 [Example 14, (2-(4-cyclopropyl-6-methoxypyrimid in-5-yl)-7-(4-(1-isopropyl-4-(trifluoromethyl)-1H-imidazol-2-yl)benzyl)-7H-pyrrolo[2,3-d]pyrimidin-6-yl) (4-morpholinopipe ridin-1-yl)methanone] | < 0.1 |  | 
> 5 | COc1ncnc(C2CC2)c1-c1ncc2cc(C(=O)N3CCC3)n(Cc3ccc(-c4nc(C(F)(F)F)cn4C(C)C)cc3)c2n1 [Example 18, azetidin-1-yl(2-(4-cyclopropyl-6-methoxypyrimidin-5-yl)-7-(4-(1-isopropyl-4-(trifluoromethyl)-1H-imidazol-2-yl)benzyl)-7H-pyrrolo[2,3-d]pyrimidin-6-yl)methanone] | < 0.1 |  | 
> 5 | COc1ncnc(C2CC2)c1-c1ncc2cc(C(=O)NCC3(C)CC(F)(F)C3)n(Cc3ccc(-c4nc(C(F)(F)F)cn4C(C)C)cc3)c2n1 [Example 20, 2-(4-cyclopropyl-6-methoxypyrimidin-5-yl)-N-((3,3-difluoro-1-methylcyclobutyl)methyl)-7-(4-(1-isopropyl-4-(trifluoromethyl)-1H-imidazol-2-yl)benzyl)-7H-pyrrolo[2,3-d]pyrimidine-6-carboxamide] | 0.1 to 0.5 |  | 
> 5 | COc1ncnc(C2CC2)c1-c1ncc2cc(C(=O)NCC#N)n(Cc3ccc(-c4nc(C(F)(F)F)cn4C(C)C)cc3)c2n1 [Example 22, N-(cyanomethyl) - 2-(4-cyclopropyl-6-methoxypyrimidin-5-yl)-7-(4-(1-isopropyl-4-(trifluoromethyl)-1H-imidazol-2-yl)benzyl)-7H-pyrrolo[2,3-d]pyrimidine-6-carboxamide] | < 0.1 |  | 

Further lines, the compound ahead of its results:

SMILES | ΔTm at 100 µM (recombinant USP1 protein; [1]) [°C] | GI50 (UWB1.289 cells; [2]) [µM] | ΔTm at 100 µM (recombinant USP1 protein) [°C] | GI50 (UWB1.289 cells; UWB1289, 144 h) [µM]
COc1ncnc(C2CC2)c1-c1ncc2cc(C(=O)NCC3(CO)CC3)n(Cc3ccc(-c4nc(C(F)(F)F)cn4C(C)C)cc3)c2n1 [Example 7, 2-(4-cyclopropyl-6-methoxypyrimidin-5-yl)-N-((1-(hydroxymethyl)cyclopropyl)methyl)-7-(4-(1-isopropyl-4-(trifluoromethyl)-1H-imidazol-2-yl)benzyl)-7H-pyrrolo[2,3-d]pyrimidine-6-carboxamide] | > 5 | < 0.1 |  | 
[2H]C([2H])([2H])NC(=O)c1cc2cnc(-c3c(OC)ncnc3C3CC3)nc2n1Cc1ccc(-c2nc(C(F)(F)F)cn2C(C)C)cc1 [Example 9, 2-(4-cyclopropyl-6-methoxypyrimidin-5-yl)-7-(4-(1-isopropyl-4-(trifluoromethyl)-1H-imidazol-2-yl)benzyl)-N-(methyl-d3)-7H-pyrrolo[2,3-d]pyrimidine-6-carboxamide] | > 5 | 0.1 to 0.5 |  | 
COc1ncnc(C2CC2)c1-c1ncc2cc(C(=O)NC3CC3)n(Cc3ccc(-c4nc(C(F)(F)F)cn4C(C)C)cc3)c2n1 [Example 11, N-cyclopropyl-2-(4-cyclopropyl-6-methoxypyrimidin-5-yl)-7-(4-(1-isopropyl-4-(trifluoromethyl)-1H-imidazol-2-yl)benzyl)-7H-pyrrolo[2,3-d]pyrimidine-6-carboxamide] | > 5 | < 0.1 |  | 
COc1ncnc(C2CC2)c1-c1ncc2cc(C(=O)NCCN(C)C)n(Cc3ccc(-c4nc(C(F)(F)F)cn4C(C)C)cc3)c2n1 [Example 12, 2-(4-cyclopropyl-6-methoxypyrimidin-5-yl)-N-(2-(dimethylamino)ethyl)-7-(4-(1-isopropyl-4-(trifluoromethyl)-1H-imidazol-2-yl)benzyl)-7H-pyrrolo[2,3-d]pyrimidine-6-carboxamide] | > 5 | 0.1 to 0.5 |  | 
COc1ncnc(C2CC2)c1-c1ncc2cc(C(=O)NC3COC3)n(Cc3ccc(-c4nc(C(F)(F)F)cn4C(C)C)cc3)c2n1 [Example 13, 2-(4-cyclopropyl-6-methoxypyrimidin-5-yl)-7-(4-(1-isopropyl-4-(trifluoromethyl)-1H-imidazol-2-yl)benzyl) -N-(oxetan-3-yl)-7H-pyrrolo[2,3-d]pyrimidine-6-carboxamide] | > 5 | < 0.1 |  | 
COc1ncnc(C2CC2)c1-c1ncc2cc(C(=O)NC3CCC3)n(Cc3ccc(-c4nc(C(F)(F)F)cn4C(C)C)cc3)c2n1 [Example 15, N-cyclobutyl-2-(4-cyclopropyl-6-methoxypyrimidin-5-yl)-7-(4-(1-isopropyl-4-(trifluoromethyl)-1H-imidazol-2-yl)benzyl)-7H-pyrrolo[2,3-d]pyrimidine-6-carboxamide] | > 5 | < 0.1 |  | 
COc1ncnc(C2CC2)c1-c1ncc2cc(C(=O)Nc3ccccc3)n(Cc3ccc(-c4nc(C(F)(F)F)cn4C(C)C)cc3)c2n1 [Example 17, 2-(4-cyclopropyl-6-methoxypyrimidin-5-yl)-7-(4-(1-isopropyl-4-(trifluoromethyl)-1H-imidazol-2-yl)benzyl)-N-phenyl-7H-pyrrolo[2,3-d]pyrimidine-6-carboxamide] | > 5 | < 0.1 |  | 
COc1ncnc(C2CC2)c1-c1ncc2cc(C(=O)NCC3CCC3)n(Cc3ccc(-c4nc(C(F)(F)F)cn4C(C)C)cc3)c2n1 [Example 19, N-(cyclobutylmethyl)-2-(4-cyclopropyl-6-methoxypyrimidin-5-yl)-7-(4-(1-isopropyl-4-(trifluoromethyl)-1H-imidazol-2-yl)benzyl)-7H-pyrrolo[2,3-d]pyrimidine-6-carboxamide] | > 5 | < 0.1 |  | 
COc1ncnc(C2CC2)c1-c1ncc2cc(C(=O)NCCF)n(Cc3ccc(-c4nc(C(F)(F)F)cn4C(C)C)cc3)c2n1 [Example 21, 2-(4-cyclopropyl-6-methoxypyrimidin-5-yl)-N-(2-fluoroethyl)-7-(4-(1-isopropyl-4-(trifluoromethyl)-1H-imidazol-2-yl)benzyl)-7H-pyrrolo[2,3-d]pyrimidine-6-carboxamide] |  |  | > 5 | < 0.1
COC[C@H](C)NC(=O)c1cc2cnc(-c3c(OC)ncnc3C3CC3)nc2n1Cc1ccc(-c2nc(C(F)(F)F)cn2C(C)C)cc1 [Example 23, (S)-2-(4-cyclopropyl-6-methoxypyrimidin-5-yl)-7-(4-(1-isopropyl-4-(trifluoromethyl)-1H-imidazol-2-yl)benzyl)-N-(1-methoxypropan-2-yl)-7H-pyrrolo[2,3-d]pyrimidine-6-carboxamide] | > 5 | < 0.1 |  | 
COc1ncnc(C2CC2)c1-c1ncc2cc(C(=O)N3CCN(C)CC3)n(Cc3ccc(-c4nc(C(F)(F)F)cn4C(C)C)cc3)c2n1 [Example 24, (2-(4-cyclopropyl-6-methoxypyrimid in-5-yl)-7-(4-(1-isopropyl-4-(trifluoromethyl)-1H-imidazol-2-yl)benzyl)-7H-pyrrolo[2,3-d]pyrimidin-6-yl) (4-methylpiperazi n-1-yl)methanone] | > 5 | < 0.1 |  | 

Reference: EP4806898A1, “HETEROARYL DERIVATIVE COMPOUND AND USE THEREOF” (Voronoi Inc., priority 2023, dated 2025)
